Test system: ethanol-induced gastric ulcers in rats
Experiment: ethanol-induced gastric ulcer model in rats (anti-ulcerogenic activity)
Format: in vivo, Albino rats
Design: key to Ulcer index: sum of lesion lengths (mm) per stomach
Settings: for Ulcer index: mean ± SEM, n = 5; for % Inhibition: versus saline group
Experimental: Albino rats (weighing 180-220 g) were housed at the animal house of the […] Institute of Pharmaceutical Sciences under controlled environment (23-25 °C). Animals were kept in plastic cages with sawdust (changed at every 48 h) and were fasted for 24 h before starting the experiment. Animals were provided with tap water ad libitum and standard pellet diet. Experiments performed complied with rules of Institute of Laboratory Animal Resources, Commission on Life Sciences University, National Research Council (1996) and were approved by Ethical Committee of […] Institute of Pharmaceutical Sciences, […] International University. Albino rats (180-220 g) of either sex were divided into different groups (n = 5). Animals were fasted for 24 h before the study, but had free access to water. Animals in the control group received only normal saline (10 mL/kg). Compound 5a at doses of 100 and 500 μg/kg, (p. o.) was given to the animals in the treatment group. Same procedure was repeated for Compund 5b, 5c, 5d, 5e and 5f. Omeprazole (30 mg/kg) was used as a standard. The rats were sacrificed 1 h later and the stomach removed and observed for ulcers in the glandular region. The surface area of each lesion was measured and scored by method with described by Tan et al. with some modifications. The ulcer index for each rat was taken as the mean ulcer score (0: no ulcer; 1: US ≤ 0.5 mm^2; 2: 0.5 < US ≤ 2.5 mm^2; 3: 2.5 mm^2 < US ≤ 5 mm^2; 4: 5 mm^2 < US ≤ 10 mm^2; 5: 10 mm^2 < US ≤ 15 mm^2; 6: 15 mm^2 < US ≤ 20 mm^2; 7: 20 mm^2 < US ≤ 25 mm^2; 8: 25 mm^2 < US ≤ 30 mm^2; 9: 30 mm^2 < US ≤ 35 mm^2; 10: US > 35 mm^2). The sum of the length (mm) of all the lesions for each stomach was used as the ulcer index (UI). The percentage of inhibition (% I) was calculated using the following formula: %I=USc-USt×100/USc where USc = ulcer surface area of control and USt = ulcer surface area of test animal. The anti-ulcer activity of all the benzimidazole-pyrazole hybrids 5a-f was tested in vivo by ethanol-induced gastric ulcer model in rats. Rats received test compounds in two different doses; 100 and 500 μg/kg orally. Omeprazole (30 mg/kg) was used as a standard. The rats were sacrificed 1 h later and the stomach removed and observed for ulcers in the glandular region. The surface area of each lesion was measured and scored by method. […] Figure 2 show the gastric mucosa of rats. […] The results clearly indicated the greater anti-ulcer potential of our synthesized compounds as compared to omeprazole, the currently used anti-ulcer drug. […] It was observed that substitution pattern of both the aromatic rings attached to pyrazole ring effect the anti-ulcer activity. The highest activity was shown by compound 5d i.e. 83.1% at 500 μg/kg dose. All the compounds were docked against H^+/K^+ ATPase to assess the binding affinities and compared with Omeprazole which is a known mercapto benzimidazole derivative and H^+/K^+ ATPase inhibitor. […] 5d has maximum binding affinity of -9.8 kcal/mole due to maximum number of hydrogen bonding interactions with the target.

[1] = 100 µg/kg p.o. + ethanol (1 mL/100 g)
[2] = 500 µg/kg p.o. + ethanol (1 mL/100 g)
[3] = 30 mg/kg + ethanol (1 mL/100 g)

Structure (SMILES) | Ulcer index [1] | % Inhibition [1] [%] | Ulcer index [2] | % Inhibition [2] [%] | Ulcer index [3] | % Inhibition [3] [%] | % Inhibition (30 mg/kg + ethanol (1 mL/100 g), listed as omeprazole) [%]
O=C(CSc1nc2ccccc2[nH]1)n1nc(-c2ccccc2)cc1-c1ccccc1O [Compound 5a, 2-(1H-benzimidazol-2-ylsulfanyl)-1-[5-(2-hydroxyphenyl)-3-phenyl-1H-pyrazol-1-yl]ethanone] | 3.22 ± 0.009 | 35.4 | 1.07 ± 0.008 | 78.5 |  |  | 
O=C(CSc1nc2ccccc2[nH]1)n1nc(-c2ccccc2O)cc1-c1ccccc1O [Compound 5b, 2-(1H-benzimidazol-2-ylsulfanyl)-1-[3,5-bis(2-hydroxyphenyl)-1H-pyrazol-1-yl]ethanone] | 3.48 ± 0.008 | 30.2 | 1.26 ± 0.009 | 74.7 |  |  | 
COc1ccc(-c2cc(-c3ccccc3O)n(C(=O)CSc3nc4ccccc4[nH]3)n2)cc1O [Compound 5c, 2-(1H-benzimidazol-2-ylsulfanyl)-1-[5-(2-hydroxyphenyl)-3-(3-hydroxy-4-methoxyphenyl) -1H-pyrazol-1-yl]ethanone] | 3.52 ± 0.009 | 29.4 | 1.48 ± 0.009 | 70.3 |  |  | 
O=C(CSc1nc2ccccc2[nH]1)n1nc(-c2ccccc2)cc1-c1ccccc1 [Compound 5e, 2-(1H-benzimidazol-2-ylsulfanyl)-1-(3,5-diphenyl-1H-pyrazol-1-yl)ethanone] | 3.18 ± 0.01 | 36.2 | 1.06 ± 0.01 | 79 |  |  | 
COc1ccc(-c2cc(-c3ccccc3)nn2C(=O)CSc2nc3ccccc3[nH]2)cc1O [Compound 5f, 2-(1H-benzimidazol-2-ylsulfanyl)-1-[5-(3-hydroxy-4-methoxyphenyl)-3-phenyl-1H-pyrazol-1-yl]ethanone] | 3.75 ± 0.016 | 24.8 | 1.39 ± 0.02 | 72.1 |  |  | 
COc1ccc2[nH]c([S+]([O-])Cc3ncc(C)c(OC)c3C)nc2c1 (centres unmarked) [Omeprazole, reference compound] |  |  |  |  | 0.84 ± 0.01 | 83.1 | 83
